According to US10633338B2, “Binding Function 3 (BF3) site compounds as therapeutics and methods for their use” (THE UNIVERSITY OF BRITISH COLUMBIA, priority 2014, dated 2020):
Where two headings read alike, the source gives them in different places.

How the values were obtained:
PSA = assay: Prostate Surface Antigen (PSA) assay, PSA excreted into the media; format: cell-based, human
Experimental: The evaluation of PSA excreted into the media was performed in parallel to the eGFP assay using the same plates (see above description). After the cells were incubated for 3 days 150 μl of the media was taken from each well, and added to 150 μl of PBS.

androgen receptor (AR) = target: T1, androgen receptor (AR) (Homo sapiens, UniProt P10275, T878A); assay: eGFP cellular AR transcription assay; format: cell-based
T1 construct: stably transfected eGFP-expressing LNCaP human prostate cancer cells (LN-ARR2PB-eGFP) containing an androgen responsive probasin-derived promoter; endogenous in cells; host or cells: LNCaP (LN-ARR2PB-eGFP)
T1 sequence (P10275 1-920 T878A): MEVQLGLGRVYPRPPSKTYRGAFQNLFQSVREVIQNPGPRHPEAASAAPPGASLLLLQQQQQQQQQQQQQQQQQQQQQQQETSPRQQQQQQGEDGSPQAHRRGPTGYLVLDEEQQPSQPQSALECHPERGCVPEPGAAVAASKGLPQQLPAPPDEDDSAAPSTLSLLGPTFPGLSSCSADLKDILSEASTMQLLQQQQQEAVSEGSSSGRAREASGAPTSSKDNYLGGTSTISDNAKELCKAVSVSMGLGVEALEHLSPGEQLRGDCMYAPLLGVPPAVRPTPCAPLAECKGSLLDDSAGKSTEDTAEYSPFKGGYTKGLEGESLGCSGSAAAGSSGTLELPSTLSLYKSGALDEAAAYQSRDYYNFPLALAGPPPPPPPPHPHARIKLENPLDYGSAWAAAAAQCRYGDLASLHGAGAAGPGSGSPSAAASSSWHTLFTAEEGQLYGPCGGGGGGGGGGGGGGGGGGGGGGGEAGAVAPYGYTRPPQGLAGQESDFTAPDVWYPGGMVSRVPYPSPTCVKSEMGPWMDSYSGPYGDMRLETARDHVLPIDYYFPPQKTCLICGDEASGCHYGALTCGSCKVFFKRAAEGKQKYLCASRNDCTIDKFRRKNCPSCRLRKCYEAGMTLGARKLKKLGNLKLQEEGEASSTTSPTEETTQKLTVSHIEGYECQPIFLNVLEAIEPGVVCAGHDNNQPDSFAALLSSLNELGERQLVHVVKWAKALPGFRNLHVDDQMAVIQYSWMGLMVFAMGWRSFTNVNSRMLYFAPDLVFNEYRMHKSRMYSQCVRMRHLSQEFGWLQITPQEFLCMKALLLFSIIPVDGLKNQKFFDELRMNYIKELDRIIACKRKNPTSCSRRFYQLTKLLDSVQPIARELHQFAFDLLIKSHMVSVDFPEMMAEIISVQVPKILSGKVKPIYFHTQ
Experimental: After 5 days, the cells were plated into a 96-well plate (35,000 cells/well) with 0.1 nM of the synthetic androgen R1881 and increasing concentrations (0-100 μM) of compound.
After 5 days, the cells were plated into a 96-well plate (35,000 cells/well) with 0.1 nM R1881 and increasing concentrations (0-100 μM) of compound.
In this assay, the expression of eGFP is under the control of an androgen responsive probasin-derived promoter and can quantify AR transcriptional activity.

[1] = Homo sapiens, 72 h, PSA excreted into media, same plates as eGFP assay, 3 days incubation, read-out: PSA IC50
[2] = LN-ARR2PBeGFP LNCaP cells, 0.1 nM R1881, 3 days incubation, read-out: eGFP IC50
[3] = PSA excreted into media, same plates as eGFP assay, 3 days incubation
[4] = Homo sapiens, 72 h, same plates as eGFP assay, media after 3 days, read-out: IC50 (PSA)
[5] = LN-ARR2PB-eGFP LNCaP cells, 0.1 nM R1881, 3 days, 0-100 μM compound, read-out: IC50 (eGFP)
[6] = PSA excreted into media, same plates as eGFP assay, 3 days incubation, read-out: PSA IC50

| Compound | IC50 (PSA; [1]) [nM] | also measured |
| --- | --- | --- |
| Cc1cccc2c(-c3ccc4ccc(Cl)cc4n3)c[nH]c12 [Compound 13606] | 1430 | – |
| Fc1ccc2c(-c3ccc4ccccc4n3)c[nH]c2c1 [Compound 13576] | 48 | IC50 (androgen receptor (AR); [2]): 144 nM |
| Cc1ccc2ccc(-n3ccc4cccc(C)c43)nc2c1 [Compound 13649] | – | PSA IC50 (PSA; [3]): Inactive; eGFP IC50 (androgen receptor (AR); LN-ARR2PBeGFP LNCaP cells, 0.1 nM R1881, 3 days incubation): Inactive |
| Cc1cc(F)cc2c(-c3cnc4ccc(F)cc4n3)c[nH]c12 [Compound 13717] | 330 | IC50 (androgen receptor (AR); [2]): 490 nM |
| Fc1cc2c(-c3ccc4cccc(F)c4n3)c[nH]c2c(F)c1F [Compound 13774] | 773 | IC50 (androgen receptor (AR); [2]): 700 nM |
| Clc1cc(Cl)cc(/N=C/c2c[nH]c3ccccc23)c1 [Compound 13304] | 4540 | IC50 (androgen receptor (AR); [2]): 7300 nM |
| O=[N+]([O-])c1cccc2c(-c3ccc(Br)cc3)c[nH]c12 [Compound 13738] | 62 | IC50 (androgen receptor (AR); [2]): 83 nM |
| c1ccc(-c2ccc(-c3c[nH]c4cccnc34)cc2)cc1 [13 735] | – | IC50 (PSA; [4]): 1430 nM; IC50 (androgen receptor (AR); [5]): 3860 nM |
| CNC(=O)c1cccc2nc(-c3c[nH]c4ccccc34)ccc12 [Compound 13691] | 480 | IC50 (androgen receptor (AR); [2]): 400 nM |
| Cc1cccc2c(-c3ccc4cccc(Cl)c4n3)c[nH]c12 [Compound 13593] | 130 | – |
| Cc1cccc2c(-c3ccc4ccc(F)cc4n3)c[nH]c12 [Compound 13611] | 121 | – |
| CNC(=O)c1cccc2nc(-c3c[nH]c4c(C)cccc34)ccc12 [Compound 13597] | 132 | – |
| Cc1cc(F)cc2c(-c3ccc4ccccc4n3)c[nH]c12 [Compound 13601] | 165 | – |
| Cc1cccc2c(-c3ccc4ccccc4n3)c[nH]c12 [Compound 13566] | 11 | – |
| Cc1ccc(/N=C/c2c[nH]c3ccccc23)cc1 [Compound 13247] | 430 | – |
| Cc1cc(Cl)c2[nH]cc(-c3ccc4ccccc4n3)c2c1 [Compound 13625] | 1230 | – |
| Cc1cccc2c(-c3ccc4cccc(Br)c4n3)c[nH]c12 [Compound 13677] | 110 | – |
| c1ccc(-c2nc3ccccc3[nH]2)cc1 [13 686] | – | IC50 (PSA) (PSA; same plates as eGFP assay, media after 3 days): IC50 (PSA) = Inactive |
| Fc1cc(Cl)c2[nH]cc(-c3ccc4ccccc4n3)c2c1 [Compound 13624] | 42 | – |

| Compound | IC50 (PSA; [1]) [nM] | also measured |
| --- | --- | --- |
| Cc1c(F)ccc2c(-c3ccc4ccccc4n3)c[nH]c12 [Compound 13607] | 87 | – |
| Cc1cccc2c(-c3ccc4cccc(F)c4n3)c[nH]c12 [Compound 13692] | 82 | – |
| c1ccc(-c2nc3ccccc3[nH]2)cc1 [Compound 13686] | – | PSA IC50 (PSA; [3]): Inactive |
| Cc1cccc2c(-c3cnc4ccccc4c3)c[nH]c12 [Compound 13654] | – | IC50 (PSA; [6]): 160 nM |
| Cc1cccc2c(-c3ccc4cccc(Br)c4n3)c[nH]c12 [13 677] | – | IC50 (PSA; [4]): 110 nM |
| Fc1cc2c(-c3ccc4c(C(F)(F)F)cccc4n3)c[nH]c2c(F)c1F [Compound 13761] | 383 | – |
| Fc1cc(Cl)cc2c(-c3ccc4ccccc4n3)c[nH]c12 [Compound 13641] | 403 | – |
| Clc1cc(Cl)c2[nH]cc(-c3ccc4ccccc4n3)c2c1 [Compound 13627] | 1160 | – |
| Fc1ccc2c(-c3ccc4ccccc4n3)c[nH]c2c1Cl [Compound 13642] | 25 | – |
| Fc1cc(F)c2[nH]cc(-c3ccc4ccccc4n3)c2c1 [Compound 13610] | 13 | – |
| Clc1cccc2c(-c3ccc4ccccc4n3)c[nH]c12 [Compound 13622] | 75 | – |
| Cc1cccc2c(-c3ccc4c(C(F)(F)F)cccc4n3)c[nH]c12 [Compound 13602] | 182 | – |
| Fc1ccc2c(-c3ccc4ccccc4n3)c[nH]c2c1F [Compound 13618] | 130 | – |
| Cc1cccc2c(-c3ccc4ccccc4n3)c[nH]c12 [13 566] | – | IC50 (PSA; Homo sapiens, 72 h, read-out: IC50 (PSA)): 56 nM |
| CNC(=O)c1cccc2nc(-c3c[nH]c4c(F)c(F)c(F)cc34)ccc12 [Compound 13754] | – | IC50 (PSA; [6]): 51 nM |
| Cc1cccc2c(-c3cnc4ccccc4c3)c[nH]c12 [Compound 13643] | 156 | – |
| Cc1cc(-c2c[nH]c3ccccc23)nc2ccccc12 [13 547] | – | IC50 (androgen receptor (AR); [5]): 5600 nM |
| FC(F)(F)c1cccc(/N=C/c2c[nH]c3ccccc23)c1 [Compound 13303] | – | IC50 (androgen receptor (AR); [2]): 4500 nM |
